Results on 16 compounds are retold here after patent US20230093099A1, “COMPOUNDS AND METHODS OF TREATING CANCERS” (CULLGEN (SHANGHAI), INC., priority 2019, published 2023).

Molecules are shown by their SMILES. Bounds are passed on as bounds.

In the assay the test system is RS4;11 cells. In words: Cell viability assay (CellTiter-Glo) in RS4;11 cells. Particulars: Homo sapiens, 72 h; RS4;11 cells; cell viability, 3 days, CellTiter-Glo; read-out: IC50. Format: cell-based. Summed up: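 RS4;11 cells seeded at 5000 per well, exposed for 3 days to 8- or 12-point 3-fold serial dilutions. Viability read by CellTiter-Glo luminescence; IC50 fitted by nonlinear least-squares regression.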
In general, IC50 refers to the concentration that inhibits the measured activity by half. Take `Cc1ncsc1-c1ccc(CNC(=O)[C@@H]2C[C@@H](O)CN2C(=O)[C@@H](NC(=O)CNC(=O)CN2CCN(c3ccc(Nc4nc5cccc(-c6ccc(S(C)(=O)=O)cc6)n5n4)cc3)CC2)C(C)(C)C)cc1` [JA-126, (2S,4R)-1-((S)-3,3-Dimethyl-2-(2-(2-(4-(4-((5-(4-(methylsulfonyl)phenyl)-[1,2,4]triazolo[1,5-a]pyridin-2-yl)amino)phenyl)piperazin-1-yl)acetamido)acetamido)butanoyl)-4-hydroxy-N-(4-(4-methylthiazol-5-yl)benzyl)pyrrolidine-2-carboxamide]: the half-inhibitory concentration (IC50) was over 10 µM.
In the case of `CS(=O)(=O)c1ccc(-c2cccc3nc(Nc4ccc(N5CCN(CC(=O)NCCOCCOCCOCCNc6cccc7c6C(=O)N(C6CCC(=O)NC6=O)C7=O)CC5)cc4)nn23)cc1` (stereo not shown) [JA-127, N-(2-(2-(2-(2-((2-(2,6-Dioxopiperidin-3-yl)-1,3-dioxoisoindolin-4-yl)amino)ethoxy)ethoxy)ethoxy)ethyl)-2-(4-(4-((5-(4-(methylsulfonyl)phenyl)-[1,2,4]triazolo[1,5-a]pyridin-2-yl)amino)phenyl)piperazin-1-yl)acetamide] it was over 10 µM; in that of `Cc1ncsc1-c1ccc(CNC(=O)[C@@H]2C[C@@H](O)CN2C(=O)[C@@H](NC(=O)CCCCCCCCCCNC(=O)CN2CCN(c3ccc(Nc4nc5cccc(-c6ccc(S(C)(=O)=O)cc6)n5n4)cc3)CC2)C(C)(C)C)cc1` [JA-128, (2S,4R)-1-((S)-3,3-Dimethyl-2-(11-(2-(4-(4-((5-(4-(methylsulfonyl)phenyl)-[1,2,4]triazolo[1,5-a]pyridin-2-yl)amino)phenyl)piperazin-1-yl)acetamido)undecanamido)butanoyl)-4-hydroxy-N-(4-(4-methylthiazol-5-yl)benzyl)pyrrolidine-2-carboxamide], over 10 µM.
Regarding `CS(=O)(=O)c1ccc(-c2cccc3nc(Nc4ccc(N5CCN(CC(=O)NCCOCCOCCOCCOCCOCCNc6cccc7c6C(=O)N(C6CCC(=O)NC6=O)C7=O)CC5)cc4)nn23)cc1` (stereo not shown) [JA-129, N-(17-((2-(2,6-Dioxopiperidin-3-yl)-1,3-dioxoisoindolin-4-yl)amino)-3,6,9,12,15-pentaoxaheptadecyl)-2-(4-(4-((5-(4-(methylsulfonyl)phenyl)-[1,2,4]triazolo[1,5-a]pyridin-2-yl)amino)phenyl)piperazin-1-yl)acetamide], the half-inhibitory concentration (IC50) is over 10 µM.
In the case of `Cc1ncsc1-c1ccc(CNC(=O)[C@@H]2C[C@@H](O)CN2C(=O)[C@@H](NC(=O)CCCCNC(=O)CN2CCN(c3ccc(Nc4nc5cccc(-c6ccc(S(C)(=O)=O)cc6)n5n4)cc3)CC2)C(C)(C)C)cc1` [JA-130, (2S,4R)-1-((S)-3,3-Dimethyl-2-(5-(2-(4-(4-((5-(4-(methylsulfonyl)phenyl)-[1,2,4]triazolo[1,5-a]pyridin-2-yl)amino)phenyl)piperazin-1-yl)acetamido)pentanamido)butanoyl)-4-hydroxy-N-(4-(4-methylthiazol-5-yl)benzyl)pyrrolidine-2-carboxamide] it was over 10 µM; in that of `Cc1ncsc1-c1ccc(CNC(=O)[C@@H]2C[C@@H](O)CN2C(=O)[C@@H](NC(=O)COCCOCCOCCNC(=O)CN2CCN(c3ccc(Nc4nc5cccc(-c6ccc(S(C)(=O)=O)cc6)n5n4)cc3)CC2)C(C)(C)C)cc1` [JA-131, (2S,4R)-1-((S)-2-(tert-Butyl)-17-(4-(4-((5-(4-(methylsulfonyl)phenyl)-[1,2,4]triazolo[1,5-a]pyridin-2-yl)amino)phenyl)piperazin-1-yl)-4,16-dioxo-6,9,12-trioxa-3,15-diazaheptadecanoyl)-4-hydroxy-N-(4-(4-methylthiazol-5-yl)benzyl)pyrrolidine-2-carboxamide], over 10 µM.
In the case of `Cc1ncsc1-c1ccc(CNC(=O)[C@@H]2C[C@@H](O)CN2C(=O)[C@@H](NC(=O)COCCNC(=O)CN2CCN(c3ccc(Nc4nc5cccc(-c6ccc(S(C)(=O)=O)cc6)n5n4)cc3)CC2)C(C)(C)C)cc1` [JA-132, (2S,4R)-1-((S)-3,3-Dimethyl-2-(2-(2-(2-(4-(4-((5-(4-(methylsulfonyl)phenyl)-[1,2,4]triazolo[1,5-a]pyridin-2-yl)amino)phenyl)piperazin-1-yl)acetamido)ethoxy)acetamido)butanoyl)-4-hydroxy-N-(4-(4-methylthiazol-5-yl)benzyl)pyrrolidine-2-carboxamide] it was over 10 µM; in that of `Cc1ncsc1-c1ccc(CNC(=O)[C@@H]2C[C@@H](O)CN2C(=O)[C@@H](NC(=O)CCOCCOCCOCCOCCNC(=O)CN2CCN(c3ccc(Nc4nc5cccc(-c6ccc(S(C)(=O)=O)cc6)n5n4)cc3)CC2)C(C)(C)C)cc1` [JA-133, (2S,4R)-1-((S)-20-(tert-Butyl)-1-(4-(4-((5-(4-(methylsulfonyl)phenyl)-[1,2,4]triazolo[1,5-a]pyridin-2-yl)amino)phenyl)piperazin-1-yl)-2,18-dioxo-6,9,12,15-tetraoxa-3,19-diazahenicosan-21-oyl)-4-hydroxy-N-(4-(4-methylthiazol-5-yl)benzyl)pyrrolidine-2-carboxamide], over 10 µM.
In the case of `Cc1ncsc1-c1ccc(CNC(=O)[C@@H]2C[C@@H](O)CN2C(=O)[C@@H](NC(=O)COCCOCCNC(=O)CN2CCN(c3ccc(Nc4nc5cccc(-c6ccc(S(C)(=O)=O)cc6)n5n4)cc3)CC2)C(C)(C)C)cc1` [JA-134, (2S,4R)-1-((S)-2-(tert-Butyl)-14-(4-(4-((5-(4-(methylsulfonyl)phenyl)-[1,2,4]triazolo[1,5-a]pyridin-2-yl)amino)phenyl)piperazin-1-yl)-4,13-dioxo-6,9-dioxa-3,12-diazatetradecanoyl)-4-hydroxy-N-(4-(4-methylthiazol-5-yl)benzyl)pyrrolidine-2-carboxamide] it was 4.31 µM.
For `Cc1ncsc1-c1ccc(CNC(=O)[C@@H]2C[C@@H](O)CN2C(=O)[C@@H](NC(=O)CCOCCOCCNC(=O)CN2CCN(c3ccc(Nc4nc5cccc(-c6ccc(S(C)(=O)=O)cc6)n5n4)cc3)CC2)C(C)(C)C)cc1` [JA-135, (2S,4R)-1-((S)-14-(tert-Butyl)-1-(4-(4-((5-(4-(methylsulfonyl)phenyl)-[1,2,4]triazolo[1,5-a]pyridin-2-yl)amino)phenyl)piperazin-1-yl)-2,12-dioxo-6,9-dioxa-3,13-diazapentadecan-15-oyl)-4-hydroxy-N-(4-(4-methylthiazol-5-yl)benzyl)pyrrolidine-2-carboxamide], the half-inhibitory concentration (IC50) was over 10 µM.
Then `Cc1ncsc1-c1ccc(CNC(=O)[C@@H]2C[C@@H](O)CN2C(=O)[C@@H](NC(=O)CCOCCNC(=O)CN2CCN(c3ccc(Nc4nc5cccc(-c6ccc(S(C)(=O)=O)cc6)n5n4)cc3)CC2)C(C)(C)C)cc1` [JA-136, (2S,4R)-1-((S)-3,3-Dimethyl-2-(3-(2-(2-(4-(4-((5-(4-(methylsulfonyl)phenyl)-[1,2,4]triazolo[1,5-a]pyridin-2-yl)amino)phenyl)piperazin-1-yl)acetamido)ethoxy)propanamido)butanoyl)-4-hydroxy-N-(4-(4-methylthiazol-5-yl)benzyl)pyrrolidine-2-carboxamide], with over 10 µM.
Then `Cc1ncsc1-c1ccc(CNC(=O)[C@@H]2C[C@@H](O)CN2C(=O)[C@@H](NC(=O)CCOCCOCCOCCNC(=O)CN2CCN(c3ccc(Nc4nc5cccc(-c6ccc(S(C)(=O)=O)cc6)n5n4)cc3)CC2)C(C)(C)C)cc1` [JA-137, (2S,4R)-1-((S)-17-(tert-Butyl)-1-(4-(4-((5-(4-(methylsulfonyl)phenyl)-[1,2,4]triazolo[1,5-a]pyridin-2-yl)amino)phenyl)piperazin-1-yl)-2,15-dioxo-6,9,12-trioxa-3,16-diazaoctadecan-18-oyl)-4-hydroxy-N-(4-(4-methylthiazol-5-yl)benzyl)pyrrolidine-2-carboxamide], with over 10 µM.
Consider `Cc1ncsc1-c1ccc(CNC(=O)[C@@H]2C[C@@H](O)CN2C(=O)[C@@H](NC(=O)CCOCCOCCOCCOCCOCCNC(=O)CN2CCN(c3ccc(Nc4nc5cccc(-c6ccc(S(C)(=O)=O)cc6)n5n4)cc3)CC2)C(C)(C)C)cc1` [JA-138, (2S,4R)-1-((S)-23-(tert-Butyl)-1-(4-(4-((5-(4-(methylsulfonyl)phenyl)-[1,2,4]triazolo[1,5-a]pyridin-2-yl)amino)phenyl)piperazin-1-yl)-2,21-dioxo-6,9,12,15,18-pentaoxa-3,22-diazatetracosan-24-oyl)-4-hydroxy-N-(4-(4-methylthiazol-5-yl)benzyl)pyrrolidine-2-carboxamide], for which the IC50 was over 10 µM.
Then `O=C(CN1CCC(n2cc(-c3cnc4cccc(-c5cc(F)c(CN6CCOCC6)c(F)c5)c4n3)cn2)CC1)NCCOCCNc1cccc2c1C(=O)N(C1CCC(=O)NC1=O)C2=O` (stereo not shown) [JA-139, 2-[4-[4-[8-[3,5-Difluoro-4-(morpholinomethyl)phenyl]quinoxalin-2-yl]pyrazol-1-yl]-1-piperidyl]-N-[2-[2-[[2-(2,6-dioxo-3-piperidyl)-1,3-dioxo-isoindolin-4-yl]amino]ethoxy]ethyl]acetamide], with over 10 µM; and `O=C(CN1CCC(n2cc(-c3cnc4cccc(-c5cc(F)c(CN6CCOCC6)c(F)c5)c4n3)cn2)CC1)NCCOCCOCCNc1cccc2c1C(=O)N(C1CCC(=O)NC1=O)C2=O` (stereo not shown) [JA-140, 2-[4-[4-[8-[3,5-Difluoro-4-(morpholinomethyl)phenyl]quinoxalin-2-yl]pyrazol-1-yl]-1-piperidyl]-N-[2-[2-[2-[[2-(2,6-dioxo-3-piperidyl)-1,3-dioxo-isoindolin-4-yl]amino]ethoxy]ethoxy]ethyl]acetamide], with over 10 µM; and `O=C(CN1CCC(n2cc(-c3cnc4cccc(-c5cc(F)c(CN6CCOCC6)c(F)c5)c4n3)cn2)CC1)NCCOCCOCCOCCNc1cccc2c1C(=O)N(C1CCC(=O)NC1=O)C2=O` (stereo not shown) [JA-141, 2-[4-[4-[8-[3,5-Difluoro-4-(morpholinomethyl)phenyl]quinoxalin-2-yl]pyrazol-1-yl]-1-piperidyl]-N-[2-[2-[2-[2-[[2-(2,6-dioxo-3-piperidyl)-1,3-dioxo-isoindolin-4-yl]amino]ethoxy]ethoxy]ethoxy]ethyl]acetamide], with over 10 µM.
